Where “and” joins values, the source holds several entries; their conditions need not be identical. Equal values may be shown once.
Columns and labels:
Assay type in all cases: cell-based
RXR-VDR heterodimer = target: T1, RXR-VDR heterodimer (Homo sapiens, UniProt P11473); assay: RXR-VDR heterodimerization assay (SaOS-2 cells); settings: Gal4-RXR-DEF/VP16-VDR-LBD luciferase reporter, several values in a cell separated by /
T1 construct: Add the Gal4-RXR-DEF and VP16-VDR-LBD; expressed in transfected cells; host or cells: SaOS-2 cells
T1 sequence (P11473 127-423 limits assumed): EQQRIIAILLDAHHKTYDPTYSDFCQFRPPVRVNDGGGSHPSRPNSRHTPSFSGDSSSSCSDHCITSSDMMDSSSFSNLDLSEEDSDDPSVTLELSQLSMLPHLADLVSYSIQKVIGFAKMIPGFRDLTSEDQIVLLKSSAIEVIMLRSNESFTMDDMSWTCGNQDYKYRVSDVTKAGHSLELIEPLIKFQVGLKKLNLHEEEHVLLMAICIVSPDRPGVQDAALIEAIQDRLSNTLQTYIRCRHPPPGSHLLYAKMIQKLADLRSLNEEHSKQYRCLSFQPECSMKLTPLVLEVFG
T1 sequence (P19793 201-462 partner limits assumed): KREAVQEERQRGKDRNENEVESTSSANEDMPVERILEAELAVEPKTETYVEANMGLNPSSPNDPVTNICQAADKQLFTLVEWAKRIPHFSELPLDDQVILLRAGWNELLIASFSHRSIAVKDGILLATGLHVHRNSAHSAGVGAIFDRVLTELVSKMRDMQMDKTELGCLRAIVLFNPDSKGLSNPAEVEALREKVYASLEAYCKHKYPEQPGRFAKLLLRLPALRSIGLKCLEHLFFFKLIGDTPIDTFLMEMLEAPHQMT
Procedure: 1. The RXR-VDR Heterodimer Assay:
This assay provides the VDR activity of a test compound.
(1) Materials and Method for RXR-VDR Heterodimerization Assay:
Luciferase Assay Reagent: • Use Steady-Glo Luciferase Reagent from Promega (Cat #E2550) Consists of: a. E2533 Assay Substrate, lyopholized product and b. E2543 Assay Buffer. • Thaw at room temperature • Store Cell Harvesting Aspirate media from culture flask, rinse cells with HBSS and aspirate. Add trypsin and incubate. When cells appear detached, resuspend cells in growth media. Transfer into a new flask with fresh growth media for passaging the cells. Plate well plates and two extra plates A. Cell Count Mix the cell suspension using pipette Use Hematocytometer to count the cells Load cell suspension onto the hemocytometer chamber Count cells. […] In sterile flask add cell suspension to plating media. Mix. Add cells/well. Place the cells in the incubator. Cells should be about 75% confluent prior to transfection. DAY 2: Transfection Step 1: DNA and Media Add plain DMEM media to tubes for mixing the DNA Add the Reporter gene pFR-LUC Add the Gal4-RXR-DEF and VP16-VDR-LBD Step 2: FuGENE and Media Prepare plain DMEM media in a ubes for mixing FuGENE Add FuGENE 6 Transfection Reagent Incubate Step 3: FuGENE, DNA and Media Complex Add FuGENE Media complex from step 2 to DNA Media complex from step 1 Incubate Step 4: FuGENE, DNA and Media Complex to-well plate Add FuGENE-DNA-Media complex from step 3 to each plate Incubate. […] Day 4: Luciferase Assay Read the plates after drug treatment Remove part of media from all the wells and leave remainder Add Steady-Glo Luciferase Reagent mixture/wells Incubate Count each well using a Luminescence counter, Top Count NXT by Packard
Set a delay between plates to reduce the background.

rat osteocalcin promoter = assay: OCN (osteocalcin) promoter assay; settings: RG-15 (ROS 17/2.8) cells
Procedure: 3. The OCN (Osteocalcin) Promoter Assay
The OCN Promoter Assay is an indicator and marker for osteoporosis. […] Preferred assay results are less than 50 nM.
(3) Materials and Method for The OCN Promoter Assay:
The activation of osteocalcin by VDR ligands was evaluated in a rat osteoblast-like cell line RG-15 (ROS 17/2.8) stably expressing rat osteocalcin promoter fused with luciferase reporter gene. […] Confluent RG-15 cells maintained in DMEM/F-12 medium (3:1) containing 5% FBS, 300 μg/ml G418 and at 37° C. under 5% CO2/95% air atmosphere were trypsinized (0.25% trypsin) and plated into white opaque 96-well cell culture plates (25000 cells/well). After 24 hr, cells (in DMEM/F-12 medium+2% FBS) were treated with various concentrations of compounds, dissolved in DMSO. The final DMSO concentration remained at 0.01% (v/v). After 48 hr treatment, the medium was removed, cells were lysed with 50 μl of lysis buffer (From Luciferase reporter assay system, Roche Diagnostics, Indianapolis, Ind.) and assayed for luciferase activity using the Luciferase Reporter Gene Assay kit from Boehringer Mannheim as per manufacturer's specifications.

KERtr cells = assay: Keratinocyte proliferation assay; settings: Homo sapiens, 72 h, BrdU incorporation, several values separated by /, read-out: Kera. Prolif. IC50
Procedure: 5. The Keratinocyte Proliferation Assay
This Assay is indicative for the treatment of psoriasis.
(5) The Keratinocyte Proliferation Assay:
KERtr cells (Human skin keratinocyte transformed with a retrovirus vector, obtained from ATCC) were plated in 96-well flat-bottomed plates (3000 cells/well) in 100 μl keratinocyte serum free medium supplemented with bovine pituitary extract in the absence of EGF (Life Technologies, Rockville, Md.) and incubated at 37° C. for two days. The cells were treated with various concentrations of VDR ligands (ten-fold serial dilution from 10,000 nM to 0.1 nM in triplicate), dissolved in 100 μl keratinocyte serum free medium supplemented with bovine pituitary extract in the absence of EGF and incubated at 37° C. for 72 hr. […] Potency values (IC50) values were determined as the concentration (nM) of compound that elicited a half-maximal response.

[1] = Rattus norvegicus, 48 h, 48 hr treatment, luciferase, several values separated by /
[2] = 48 hr treatment, luciferase, several values separated by /

Structure (SMILES) | EC50 (RXR-VDR heterodimer) | EC50 (rat osteocalcin promoter; [1]) [nM] | IC50 (KERtr cells) [nM] | EC50 (rat osteocalcin promoter; Rattus norvegicus, comparison compounds) [nM] | EC50 (rat osteocalcin promoter; [2]) [nM]
CCC(CC)(c1ccc(OCC(=O)C(C)(C)C)c(C)c1)c1cc2cc(C(=O)N(C)CC(=O)O)ccc2o1 | 9 nM | 7 | 10 |  | 
Cc1cc(C2(c3ccc(OCC(=O)C(C)(C)C)c(C)c3)CCCCC2)ccc1OCC(=O)C(C)(C)C [CC, 1-(4-{1-[4-(3,3-Dimethyl-2-oxo-butoxy)-3-methyl-phenyl]-cyclohexyl}-2-methyl-phenoxy)-3,3-dimethyl-butan-2-one, reference compound] |  |  |  | 2680 | 
CCC(CC)(c1ccc(OCC2(C(C)(C)C)OCCO2)c(C)c1)c1cc2cc(C(=O)O)ccc2o1 [Ex 15, 2-{1-[4-(2-tert-Butyl-[1,3]dioxolan-2-ylmethoxy)-3-methyl-phenyl]-1-ethyl-propyl}-benzofuran-5-carboxylic acid] | 1350 nM and 627 nM | 634 |  |  | 
CCC(CC)(c1ccc(OCC2(C(C)(C)C)OCCO2)c(C)c1)c1cc2cc(C(=O)NCC(=O)O)ccc2o1 [Ex 16, [(2-{1-[4-(2-tert-butyl-[1,3]dioxolan-2-ylmethoxy)-3-methyl-phenyl]-1-ethyl-propyl}-benzofuran-5-carbonyl)-amino]-acetic acid] | 570 nM and 71 nM | 27 |  |  | 44
CCC(CC)(c1ccc(OCC(O)C(C)(C)C)c(C)c1)c1cc(C)c2oc(C(=O)O)cc2c1 (stereo not drawn) [Ex 22, 5-{1-Ethyl-1-[4-(2-hydroxy-3,3-dimethyl-butoxy)-3-methyl-phenyl]-propyl}-7-methyl-benzofuran-2-carboxylic acid] | 27 nM | 1 | 109 |  | 
CCC(CC)(c1ccc(OCC2(C(C)(C)C)OCCO2)c(C)c1)c1cc(C)c2oc(C(=O)O)cc2c1 [Ex 23, 5-{1-[4-(2-tert-Butyl-[1,3]dioxolan-2-ylmethoxy)-3-methyl-phenyl]-1-ethylpropyl}-7-methyl-benzofuran-2-carboxylic acid] | 660 nM and 320 nM | 127 |  |  | 88
CCC(CC)(c1ccc(OCC2(C(C)(C)C)OCCO2)c(C)c1)c1cc(C)c2oc(C(=O)NCC(=O)O)cc2c1 [Ex 24, [(5-{1-[4-(2-tert-butyl-[1,3]dioxolan-2-ylmethoxy)-3-methyl-phenyl]-1-ethyl-propyl}-7-methyl-benzofuran-2-carbonyl)-amino]-acetic acid] | 851 nM | 431 |  |  | 
CCC(CC)(c1ccc(OCC2(C(C)(C)C)OCCO2)c(C)c1)c1cc(C)c2oc(C(=O)N(C)C)cc2c1 [Ex 25, 5-{1-[4-(2-tert-Butyl-[1,3]dioxolan-2-ylmethoxy)-3-methyl-phenyl]-1-ethyl-propyl}-7-methyl-benzofuran-2-carboxylic acid dimethylamide] | 67 nM | 1000 | 1000 |  | 
CCC(CC)(c1ccc(OCC(=O)C(C)(C)C)c(C)c1)c1cc(C)c2oc(C(=O)N(C)C)cc2c1 [Ex 26, 5-{1-[4-(3,3-Dimethyl-2-oxo-butoxy)-3-methyl-phenyl]-1-ethyl-propyl}-7-methyl-benzofuran-2-carboxylic acid dimethylamide] |  | 17 |  |  | 
CCC(CC)(c1ccc(OCC(O)C(C)(C)C)c(C)c1)c1cc(C)c2oc(C(=O)N(C)C)cc2c1 (stereo not drawn) [Ex 27, 5-{1-Ethyl-1-[4-(2-hydroxy-3,3-dimethyl-butoxy)-3-methyl-phenyl]-propyl}-7-methyl-benzofuran-2-carboxylic acid dimethylamide] | 154 nM and 51 nM | 9 | > 1000 |  | 17
CCC(CC)(c1ccc(OCC(O)C(C)(C)C)c(C)c1)c1cc(C)c2oc(C(=O)NCC(=O)O)cc2c1 (stereo not drawn) [Ex 29, [(5-{1-Ethyl-1-[4-(2-hydroxy-3,3-dimethyl-butoxy)-3-methyl-phenyl]-propyl}-7-methyl-benzofuran-2-carbonyl)-amino]-acetic acid] | 71 nM | 3 | 414 |  | 
CCC(CC)(c1ccc(OCC(=O)C(C)(C)C)c(C)c1)c1ccc2oc(C(=O)N(C)C)c(C)c2c1 [Ex 36, 5-{1-[4-(3,3-dimethyl-2-oxo-butoxy)-3-methyl-phenyl]-1-ethyl-propyl}-3-methyl-benzofuran-2-carboxylic acid dimethylamide] | 536 nM | 210 |  |  | 
CCC(CC)(c1ccc(OCC(=O)C(C)(C)C)c(C)c1)c1cc2ccc(OS(C)(=O)=O)cc2o1 [Ex 40, methanesulfonic acid 2-{1-[4-(3,3-dimethyl-2-oxo-butoxy)-3-methyl-phenyl]-1-ethyl-propyl}-benzofuran-6-yl ester] | 80 nM |  |  |  | 
CCC(CC)(c1ccc(OCC(=O)C(C)(C)C)c(C)c1)c1cc2cc(C(=O)OC)ccc2o1 [Ex. 1] |  | 1 | 71 |  | 
CCC(CC)(c1ccc(OCC(O)C(C)(C)C)c(C)c1)c1cc2cc(C(=O)N(C)C)ccc2o1 (stereo not drawn) [Ex. 6, 2-{1-Ethyl-1-[4-(2-hydroxy-3,3-dimethyl-butoxy)-3-methyl-phenyl]-propyl}-benzofuran-5-carboxylic acid dimethylamide] | 410 nM and 79 nM | 68 |  |  | 47
CCC(CC)(c1ccc(OCC(=O)C(C)(C)C)c(C)c1)c1cc2cc(C(=O)NC(C)(C)C(=O)O)ccc2o1 [Ex. 10, 2-[(2-{1-[4-(3,3-Dimethyl-2-oxo-butoxy)-3-methyl-phenyl]-1-ethyl-propyl}-benzofuran-5-carbonyl)-amino]-2-methyl-propionic acid] | 235 nM | 275 | 215 |  | 

Source: US7579488B2 (Eli Lilly and Company, priority 2003, dated 2009)
